Source: patent US20050032646A1, “Agents for the regulation of gametophytic self-incompatibility and a control method for the breakdown of gametophytic self-incompatibility using the agents” (priority 2002, published 2005)

Columns and labels:
[1] = system: style-specific S RNase of Fuji apple; assay: Inhibition of the activity of a style-specific S RNase by the agents; format: biochemical; conditions: optical density at 260 nm (A260), agent 2.0 mM, no treatment 1.10
Experimental: Inhibition of S RNase activity by an agent of the present invention was measured as follows: The standard solution of 500 μL of 10 mM sodium phosphate (pH 7.0) with an agent (2.0 mM), and 500 μL of torula yeast rRNA (5 mg/mL) was pre-incubated for 10 min at 37° C. To the substrate solution, the 20 μL of the style-specific S RNase (200 ng) of Fuji apple was added, then the solution was incubated for 30 min at 37° C. A fraction of 200 μL was collected and 40 μL of stop buffer (ice-cold 25% HCIO4, 0.75% uranyl acetate) was added, then mixed and centrifuged at 12,000 rpm for 5 min. And 50 μL of the supernatant was diluted with 950 μL of dd H2O, then the solution was centrifuged and measured the optical density at 260 nm (A260) (Singh A. et al., Plant Physilolgy, 96: 61-68,1991).

Lycopersicon peruvianum = assay: Breakdown of the self-incompatibility in Lycopersicon peruvianum (fruition rate, greenhouse); format: in vivo
Experimental: To verify the inhibition of a style-specific S RNase and the suppression of SI system with an agent of the present invention in a practical cultivating Environment, a wild-type tomato (Lycopersicon peruvianum) which has a gametophytic SI system was cultivated in a greenhouse at genetically insulated environment and was treated with an S RNase inhibitor of the present invention.
To determine the treatment period of an S RNase inhibitor, the inhibitor was applied to flowers either at the early blooming period (budding formation period to full blooming), or the middle blooming period (full blooming), or the late blooming period (1 day after full blooming period of petal), respectively. Each inhibitors in 0.1 mM aqueous solution (except the ZnSO4 (1 mM) and CuSO4 (1.0 mM) solution) was treated enough to get-wet flowers ith a micro-spray at 9:00-11:00 AM when the pollination of plant occurs most actively. The experiment with 25 blooming flowers (organ containing a stamen, a stigma, a petal, etc.) was repeated 4 times and the fruition rate ws investigated and the results are shown in Table 2.

Hongro apple flowers = assay: Side-effect of the agents toward Hongro apple flowers; format: in vivo; set-up: key: 0: no side-effect is observed, and it is same as no treatment of the agents; 1: the side-effect are observed in flowers, but they recover to normal fruition in a week; 2: a fall-out of flowers and 10% decrease in fruition rate; 3: about 40% loss; 4: 60% loss; 5: a severe loss in fruition
Experimental: To investigate the side-effect of the agent, various concentrations of the agents were treated to the flowers of Hongro apple.

20-Century pear = assay: Breakdown of the self-incompatibility in 20-century pear (fertilization rate, field); format: in vivo; conditions: 600 μM, sprayed 5 and 2 days before full bloom, 14 days after the treatment
Experimental: In a field test, 20-Century pear (the Rosaceae) which has self-incompatibility system was isolated single-genetically by covering up selected branches or whole plants with a fine-meshed net to exclude any pollinating insects. The aqueous of 600 μM solution of an agent of the present invention was treated enough to get-wet flowers with a micro-spray at 9:00-11:00 AM. The agent solution was micro-sprayed 2 times; first at 5 days before full bloom and second at 2 days before full bloom. The reference was artificial cross-pollination at full bloom. The fertilization rate was investigated 14 days after the treatment and compared with no treatment and artificial cross-pollination.

Hongro apple = assay: Breakdown of the self-incompatibility in Hongro apple (self-pollination rate, field); format: in vivo; conditions: 25 days after the treatment
Experimental: In the field application experiment, Hongro apple (the Rosaceae) which has a very low self-pollination rate (<5%) was isolated single-genetically by covering up whole plants with a fine-meshed net to exclude any pollinating insects. The agent of the present invention was treated enough to get-wet flowers at various concentrations with a micro-spray at 9:00-11:00 AM. The target of the agent was the first-blooming primary apple flower. The self-pollination rate was investigated 25 days after the treatment and compared with no treatment and artificial cross-pollination.

[2] = agent 0.1 mM, treated 1 day after full blooming
[3] = agent 0.1 mM, treated 1 day before full blooming
[4] = agent 0.1 mM, treated 2 days after full blooming
[5] = agent 0.1 mM, treated 2 days before full blooming
[6] = agent 0.1 mM, treated 3 days before full blooming
[7] = agent 0.1 mM, treated 4 days before full blooming
[8] = agent 0.1 mM, treated 5 days before full blooming
[9] = agent 0.1 mM, treated 6 days before full blooming
[10] = agent 0.1 mM, treated 7 days before full blooming
[11] = agent 0.1 mM, treated at full blooming (0 day)

Row | OD (2.0 mM) [1] | SMILES | fruition rate (Lycopersicon peruvianum; [2]) | fruition rate (Lycopersicon peruvianum; [3]) | fruition rate (Lycopersicon peruvianum; [4]) | fruition rate (Lycopersicon peruvianum; [5]) | fruition rate (Lycopersicon peruvianum; [6]) | fruition rate (Lycopersicon peruvianum; [7]) | fruition rate (Lycopersicon peruvianum; [8]) | fruition rate (Lycopersicon peruvianum; [9]) | fruition rate (Lycopersicon peruvianum; [10]) | fruition rate (Lycopersicon peruvianum; [11]) | side-effect index (Hongro apple flowers; 1.0 mM) | side-effect index (Hongro apple flowers; 5.0 mM) | side-effect index (Hongro apple flowers; 20.0 mM) | fertilization rate (20-Century pear) | self-pollination rate (Hongro apple; concentration 0.01 mM) | self-pollination rate (Hongro apple; concentration 0.03 mM) | self-pollination rate (Hongro apple; concentration 0.10 mM) | self-pollination rate (Hongro apple; concentration 0.30 mM) | self-pollination rate (Hongro apple; concentration 1.0 mM) | other results
1 | 0.65 | COCCOCC(=O)[O-].COCCOCC(=O)[O-].[Cu+2] [Cu(II) 2-methoxyethoxyacetate] | 0% | >50% | 0% | >40% | >10% | <10% | 0% | 0% | 0% | >40% | 0 | 0 | 2 | 58% | – | – | – | – | – | –
2 | 0.70 | O=C([O-])[C@H](O)[C@@H](O)[C@H](O)[C@H](O)CO.O=C([O-])[C@H](O)[C@@H](O)[C@H](O)[C@H](O)CO.[Cu+2] [Cu(II) Gluconate] | – | – | – | – | – | – | – | – | – | – | – | – | – | 51% | – | – | – | – | – | –
3 | 0.72 | O=S(=O)([O-])[O-].[Zn+2] [ZnSO4, reference compound] | – | – | – | – | – | – | – | – | – | – | 2 | 5 | 5 | – | 0% | 0% | 0% | 0% | <10% | fruition rate (Lycopersicon peruvianum; agent 1.0 mM, treated 1 day after full blooming): 0%; fruition rate (Lycopersicon peruvianum; agent 1.0 mM, treated 1 day before full blooming): 0%; fruition rate (Lycopersicon peruvianum; agent 1.0 mM, treated 2 days after full blooming): 0%; fruition rate (Lycopersicon peruvianum; agent 1.0 mM, treated 2 days before full blooming): 0%; fruition rate (Lycopersicon peruvianum; agent 1.0 mM, treated 3 days before full blooming): <5%; fruition rate (Lycopersicon peruvianum; agent 1.0 mM, treated 4 days before full blooming): >5%; fruition rate (Lycopersicon peruvianum; agent 1.0 mM, treated 5 days before full blooming): >5%; fruition rate (Lycopersicon peruvianum; agent 1.0 mM, treated 6 days before full blooming): >10%; fruition rate (Lycopersicon peruvianum; agent 1.0 mM, treated 7 days before full blooming): >10%; fruition rate (Lycopersicon peruvianum; agent 1.0 mM, treated at full blooming (0 day)): 0%
4 | 0.73 | O=C([O-])[C@H](O)[C@@H](O)[C@H](O)[C@H](O)CO.O=C([O-])[C@H](O)[C@@H](O)[C@H](O)[C@H](O)CO.[Zn+2] [Zn(II) Gluconate] | – | – | – | – | – | – | – | – | – | – | – | – | – | 48% | – | – | – | – | – | –
5 | 0.64 | COCCOCC(=O)[O-].COCCOCC(=O)[O-].[Zn+2] [Zn(II) 2-methoxyethoxyacetate] | 0% | >60% | 0% | >50% | >10% | <10% | 0% | 0% | 0% | >40% | 0 | 0 | 1 | 53% | >10% | >40% | >60% | >60% | >60% | –
